Test results taken from article PMC3703859 (Neuropharmacology, 2010).

Columns and labels:
human DAT V152I [1] = target: T1, human DAT V152I (Homo sapiens, UniProt Q01959, V152I); experiment: [^3H]CFT binding on intact transfected COS7 cells; settings: V152I vs WT
human DAT V152A [2] = target: T2, human DAT V152A (Homo sapiens, UniProt Q01959, V152A); experiment: [^3H]CFT binding on intact transfected COS7 cells; settings: V152A vs WT
human DAT V152A [3] = target: T2, human DAT V152A; experiment: [^3H]dopamine uptake in transfected COS7 cells; format: cell-based; settings: for decrease in potency in inhibition of [^3H]dopamine uptake versus wild type: V152A vs WT
human DAT V152I [4] = target: T1, human DAT V152I; experiment: [^3H]dopamine uptake in transfected COS7 cells; format: cell-based; settings: for decrease in potency in inhibition of [^3H]dopamine uptake versus wild type: V152I vs WT
wild type human DAT = wild type human DAT (Homo sapiens, UniProt Q01959); experiment: [^3H]dopamine uptake in transfected COS7 cells; format: cell-based; settings: WT DAT
human DAT A479V/A480V = human DAT A479V/A480V (Homo sapiens, UniProt Q01959, A479V/A480V); experiment: [^3H]dopamine uptake in transfected COS7 cells; format: cell-based
human DAT N157A = human DAT N157A (Homo sapiens, UniProt Q01959, N157A); experiment: [^3H]dopamine uptake in transfected COS7 cells; format: cell-based
human DAT N157C = human DAT N157C (Homo sapiens, UniProt Q01959, N157C); experiment: [^3H]dopamine uptake in transfected COS7 cells; format: cell-based
human DAT S422A = human DAT S422A (Homo sapiens, UniProt Q01959, S422A); experiment: [^3H]dopamine uptake in transfected COS7 cells; format: cell-based
[5] = substrate: NCCc1ccc(O)c(O)c1; experiment: cells, lysate or membranes; settings: COS7 cells, 5 min uptake at room temperature, pH 7.4

## CN1[C@@H]2CC[C@H]1C[C@@H](OC(c1ccccc1)c1ccccc1)C2 [BZT, benztropine]
Human DAT V152I [1]
  reduction in apparent affinity in [^3H]CFT competition binding versus wild type: ~ 15 fold
Human DAT V152A [2]
  reduction in apparent affinity in [^3H]CFT competition binding versus wild type: ~ 15 fold
Human DAT V152A [3]
  decrease in potency in inhibition of [^3H]dopamine uptake versus wild type: ~ 3 fold
Human DAT V152I [4]
  decrease in potency in inhibition of [^3H]dopamine uptake versus wild type: no change

## CCCCN1[C@@H]2CC[C@H]1CC(OC(c1ccc(F)cc1)c1ccc(F)cc1)C2 (some centres unmarked) [JHW007]
Human DAT V152I [1]
  reduction in apparent affinity in [^3H]CFT competition binding versus wild type: 10–20 fold
Human DAT V152A [2]
  reduction in apparent affinity in [^3H]CFT competition binding versus wild type: 10–20 fold
Human DAT V152A [3]
  decrease in potency in inhibition of [^3H]dopamine uptake versus wild type: ~ 2 fold
Human DAT V152I [4]
  decrease in potency in inhibition of [^3H]dopamine uptake versus wild type: ~ 6 fold

## NCCc1ccc(O)c(O)c1 [[^3H]Dopamine, 3,4-[Ring-2,5,6-^3H]-dihydroxyphenylethylamine]
Wild type human DAT
  Vmax ± S.E. of [^3H]dopamine uptake: 5275 ± 555 fmol/min/10^5 cells
Human DAT A479V/A480V
  Vmax ± S.E. of [^3H]dopamine uptake: 2231 ± 157 fmol/min/10^5 cells
Human DAT V152A [3]; V152A, COS7 cells
  Vmax ± S.E. of [^3H]dopamine uptake: 614 ± 167 fmol/min/10^5 cells
Human DAT V152I [4]; V152I, COS7 cells
  Vmax ± S.E. of [^3H]dopamine uptake: 242 ± 37 fmol/min/10^5 cells
Human DAT N157A
  Vmax ± S.E. of [^3H]dopamine uptake: 598 ± 179 fmol/min/10^5 cells
Human DAT N157C
  Vmax ± S.E. of [^3H]dopamine uptake: 1768 ± 159 fmol/min/10^5 cells
Human DAT S422A; S422A vs WT
  increase in Km value for [^3H]dopamine uptake versus wild type: ~ 4 fold
Human DAT S422A; S422A, COS7 cells
  Vmax ± S.E. of [^3H]dopamine uptake: 320 ± 40 fmol/min/10^5 cells

B1: wild type human DAT (Homo sapiens) (protein)
chain: MSKSKCSVGLMSSVVAPAKEPNAVGPKEVELILVKEQNGVQLTSSTLTNPRQSPVEAQDRETWGKKIDFLLSVIGFAVDLANVWRFPYLCYKNGGGAFLVPYLLFMVIAGMPLFYMELALGQFNREGAAGVWKICPILKGVGFTVILISLYVGFFYNVIIAWALHYLFSSFTTELPWIHCNNSWNSPNCSDAHPGDSSGDSSGLNDTFGTTPAAEYFERGVLHLHQSHGIDDLGPPRWQLTACLVLVIVLLYFSLWKGVKTSGKVVWITATMPYVVLTALLLRGVTLPGAIDGIRAYLSVDFYRLCEASVWIDAATQVCFSLGVGFGVLIAFSSYNKFTNNCYRDAIVTTSINSLTSFSSGFVVFSFLGYMAQKHSVPIGDVAKDGPGLIFIIYPEAIATLPLSSAWAVVFFIMLLTLGIDSAMGGMESVITGLIDEFQLLHRHRELFTLFIVLATFLLSLFCVTNGGIYVFTLLDHFAAGTSILFGVLIEAIGVAWFYGVGQFSDDIQQMTGQRPSLYWRLCWKLVSPCFLLFVVVVSIVTFRPPHYGAYIFPDWANALGWVIATSSMAMVPIYAAYKFCSLPGSFREKLAYAIAPEKDRELVDRGEVRQFTLRHWLKV
[5]; other: WT DAT
  Km: 986 [861–1130] nM

B2: human DAT S422A (Homo sapiens; S422A) (protein)
chain: MSKSKCSVGLMSSVVAPAKEPNAVGPKEVELILVKEQNGVQLTSSTLTNPRQSPVEAQDRETWGKKIDFLLSVIGFAVDLANVWRFPYLCYKNGGGAFLVPYLLFMVIAGMPLFYMELALGQFNREGAAGVWKICPILKGVGFTVILISLYVGFFYNVIIAWALHYLFSSFTTELPWIHCNNSWNSPNCSDAHPGDSSGDSSGLNDTFGTTPAAEYFERGVLHLHQSHGIDDLGPPRWQLTACLVLVIVLLYFSLWKGVKTSGKVVWITATMPYVVLTALLLRGVTLPGAIDGIRAYLSVDFYRLCEASVWIDAATQVCFSLGVGFGVLIAFSSYNKFTNNCYRDAIVTTSINSLTSFSSGFVVFSFLGYMAQKHSVPIGDVAKDGPGLIFIIYPEAIATLPLSSAWAVVFFIMLLTLGIDAAMGGMESVITGLIDEFQLLHRHRELFTLFIVLATFLLSLFCVTNGGIYVFTLLDHFAAGTSILFGVLIEAIGVAWFYGVGQFSDDIQQMTGQRPSLYWRLCWKLVSPCFLLFVVVVSIVTFRPPHYGAYIFPDWANALGWVIATSSMAMVPIYAAYKFCSLPGSFREKLAYAIAPEKDRELVDRGEVRQFTLRHWLKV
[5]; other: S422A
  Km: 3950 [3730–4190] nM

B3: human DAT V152I (Homo sapiens; V152I) (protein)
chain: MSKSKCSVGLMSSVVAPAKEPNAVGPKEVELILVKEQNGVQLTSSTLTNPRQSPVEAQDRETWGKKIDFLLSVIGFAVDLANVWRFPYLCYKNGGGAFLVPYLLFMVIAGMPLFYMELALGQFNREGAAGVWKICPILKGVGFTVILISLYIGFFYNVIIAWALHYLFSSFTTELPWIHCNNSWNSPNCSDAHPGDSSGDSSGLNDTFGTTPAAEYFERGVLHLHQSHGIDDLGPPRWQLTACLVLVIVLLYFSLWKGVKTSGKVVWITATMPYVVLTALLLRGVTLPGAIDGIRAYLSVDFYRLCEASVWIDAATQVCFSLGVGFGVLIAFSSYNKFTNNCYRDAIVTTSINSLTSFSSGFVVFSFLGYMAQKHSVPIGDVAKDGPGLIFIIYPEAIATLPLSSAWAVVFFIMLLTLGIDSAMGGMESVITGLIDEFQLLHRHRELFTLFIVLATFLLSLFCVTNGGIYVFTLLDHFAAGTSILFGVLIEAIGVAWFYGVGQFSDDIQQMTGQRPSLYWRLCWKLVSPCFLLFVVVVSIVTFRPPHYGAYIFPDWANALGWVIATSSMAMVPIYAAYKFCSLPGSFREKLAYAIAPEKDRELVDRGEVRQFTLRHWLKV
[5]; other: V152I
  Km: 4370 [3180–6010] nM

B4: human DAT N157C (Homo sapiens; N157C) (protein)
chain: MSKSKCSVGLMSSVVAPAKEPNAVGPKEVELILVKEQNGVQLTSSTLTNPRQSPVEAQDRETWGKKIDFLLSVIGFAVDLANVWRFPYLCYKNGGGAFLVPYLLFMVIAGMPLFYMELALGQFNREGAAGVWKICPILKGVGFTVILISLYVGFFYCVIIAWALHYLFSSFTTELPWIHCNNSWNSPNCSDAHPGDSSGDSSGLNDTFGTTPAAEYFERGVLHLHQSHGIDDLGPPRWQLTACLVLVIVLLYFSLWKGVKTSGKVVWITATMPYVVLTALLLRGVTLPGAIDGIRAYLSVDFYRLCEASVWIDAATQVCFSLGVGFGVLIAFSSYNKFTNNCYRDAIVTTSINSLTSFSSGFVVFSFLGYMAQKHSVPIGDVAKDGPGLIFIIYPEAIATLPLSSAWAVVFFIMLLTLGIDSAMGGMESVITGLIDEFQLLHRHRELFTLFIVLATFLLSLFCVTNGGIYVFTLLDHFAAGTSILFGVLIEAIGVAWFYGVGQFSDDIQQMTGQRPSLYWRLCWKLVSPCFLLFVVVVSIVTFRPPHYGAYIFPDWANALGWVIATSSMAMVPIYAAYKFCSLPGSFREKLAYAIAPEKDRELVDRGEVRQFTLRHWLKV
[5]; other: N157C
  Km: 2710 [2170–3380] nM

B5: human DAT V152A (Homo sapiens; V152A) (protein)
chain: MSKSKCSVGLMSSVVAPAKEPNAVGPKEVELILVKEQNGVQLTSSTLTNPRQSPVEAQDRETWGKKIDFLLSVIGFAVDLANVWRFPYLCYKNGGGAFLVPYLLFMVIAGMPLFYMELALGQFNREGAAGVWKICPILKGVGFTVILISLYAGFFYNVIIAWALHYLFSSFTTELPWIHCNNSWNSPNCSDAHPGDSSGDSSGLNDTFGTTPAAEYFERGVLHLHQSHGIDDLGPPRWQLTACLVLVIVLLYFSLWKGVKTSGKVVWITATMPYVVLTALLLRGVTLPGAIDGIRAYLSVDFYRLCEASVWIDAATQVCFSLGVGFGVLIAFSSYNKFTNNCYRDAIVTTSINSLTSFSSGFVVFSFLGYMAQKHSVPIGDVAKDGPGLIFIIYPEAIATLPLSSAWAVVFFIMLLTLGIDSAMGGMESVITGLIDEFQLLHRHRELFTLFIVLATFLLSLFCVTNGGIYVFTLLDHFAAGTSILFGVLIEAIGVAWFYGVGQFSDDIQQMTGQRPSLYWRLCWKLVSPCFLLFVVVVSIVTFRPPHYGAYIFPDWANALGWVIATSSMAMVPIYAAYKFCSLPGSFREKLAYAIAPEKDRELVDRGEVRQFTLRHWLKV
[5]; other: V152A
  Km: 3090 [2310–4130] nM

B6: human DAT A479V/A480V (Homo sapiens; A479V/A480V) (protein)
chain: MSKSKCSVGLMSSVVAPAKEPNAVGPKEVELILVKEQNGVQLTSSTLTNPRQSPVEAQDRETWGKKIDFLLSVIGFAVDLANVWRFPYLCYKNGGGAFLVPYLLFMVIAGMPLFYMELALGQFNREGAAGVWKICPILKGVGFTVILISLYVGFFYNVIIAWALHYLFSSFTTELPWIHCNNSWNSPNCSDAHPGDSSGDSSGLNDTFGTTPAAEYFERGVLHLHQSHGIDDLGPPRWQLTACLVLVIVLLYFSLWKGVKTSGKVVWITATMPYVVLTALLLRGVTLPGAIDGIRAYLSVDFYRLCEASVWIDAATQVCFSLGVGFGVLIAFSSYNKFTNNCYRDAIVTTSINSLTSFSSGFVVFSFLGYMAQKHSVPIGDVAKDGPGLIFIIYPEAIATLPLSSAWAVVFFIMLLTLGIDSAMGGMESVITGLIDEFQLLHRHRELFTLFIVLATFLLSLFCVTNGGIYVFTLLDHFVVGTSILFGVLIEAIGVAWFYGVGQFSDDIQQMTGQRPSLYWRLCWKLVSPCFLLFVVVVSIVTFRPPHYGAYIFPDWANALGWVIATSSMAMVPIYAAYKFCSLPGSFREKLAYAIAPEKDRELVDRGEVRQFTLRHWLKV
[5]; other: A479V/A480V
  Km: 1620 [1350–1940] nM

B7: human DAT N157A (Homo sapiens; N157A) (protein)
chain: MSKSKCSVGLMSSVVAPAKEPNAVGPKEVELILVKEQNGVQLTSSTLTNPRQSPVEAQDRETWGKKIDFLLSVIGFAVDLANVWRFPYLCYKNGGGAFLVPYLLFMVIAGMPLFYMELALGQFNREGAAGVWKICPILKGVGFTVILISLYVGFFYAVIIAWALHYLFSSFTTELPWIHCNNSWNSPNCSDAHPGDSSGDSSGLNDTFGTTPAAEYFERGVLHLHQSHGIDDLGPPRWQLTACLVLVIVLLYFSLWKGVKTSGKVVWITATMPYVVLTALLLRGVTLPGAIDGIRAYLSVDFYRLCEASVWIDAATQVCFSLGVGFGVLIAFSSYNKFTNNCYRDAIVTTSINSLTSFSSGFVVFSFLGYMAQKHSVPIGDVAKDGPGLIFIIYPEAIATLPLSSAWAVVFFIMLLTLGIDSAMGGMESVITGLIDEFQLLHRHRELFTLFIVLATFLLSLFCVTNGGIYVFTLLDHFAAGTSILFGVLIEAIGVAWFYGVGQFSDDIQQMTGQRPSLYWRLCWKLVSPCFLLFVVVVSIVTFRPPHYGAYIFPDWANALGWVIATSSMAMVPIYAAYKFCSLPGSFREKLAYAIAPEKDRELVDRGEVRQFTLRHWLKV
[5]; other: N157A
  Km: 3240 [2720–3870] nM
